This is an account of results in ChEMBL document CHEMBL4814065, “Taurultams incorporating arylsulfonamide: First in vitro inhibition studies of α-, β- and γ-class Carbonic Anhydrases from Vibrio cholerae and Burkholderia pseudomallei” (Eur J Med Chem, 2021).

The nature of assay [1]: Selectivity index, ratio of Ki for Vibrio cholerae alpha carbonic anhydrase to Ki for human carbonic anhydrase 2.
Assay [2] in a line: Selectivity index, ratio of Ki for Vibrio cholerae beta carbonic anhydrase to Ki for human carbonic anhydrase 2.
The nature of assay [3]: Inhibition of Vibrio cholerae alpha carbonic anhydrase preincubated with enzyme for 15 mins by phenol red-based stopped-flow CO2 hydration assay.
The nature of assay [4]: Inhibition of Vibrio cholerae beta carbonic anhydrase preincubated with enzyme for 15 mins by phenol red-based stopped-flow CO2 hydration assay.
Assay [5] in a line: Inhibition of Vibrio cholerae gamma carbonic anhydrase preincubated with enzyme for 15 mins by phenol red-based stopped-flow CO2 hydration assay.
Assay [6] is described as follows: Inhibition of Burkholderia pseudomallei beta carbonic anhydrase preincubated with enzyme for 15 mins by phenol red-based stopped-flow CO2 hydration assay.
The nature of assay [7]: Inhibition of Burkholderia pseudomallei gamma carbonic anhydrase preincubated with enzyme for 15 mins by phenol red-based stopped-flow CO2 hydration assay.
Assay [8] can be described thus: Selectivity index, ratio of Ki for Vibrio cholerae gamma carbonic anhydrase to Ki for human carbonic anhydrase 2.
A short description of assay [9]: Selectivity index, ratio of Ki for Burkholderia pseudomallei beta carbonic anhydrase to Ki for human carbonic anhydrase 2.
A short description of assay [10]: Selectivity index, ratio of Ki for Burkholderia pseudomallei gamma carbonic anhydrase to Ki for human carbonic anhydrase 2.

One may read the Ki as the dissociation constant of the complex between target and ligand, obtained from inhibition or displacement. High values mean weaker binding, low ones tighter binding.

Regarding `NS(=O)(=O)c1ccc(CCN2CN(Cc3c(F)cccc3F)CCS2(=O)=O)cc1`, the Ratio Ki in [1] came to 0.14; in assay [2], 16.9; in assay [8] it was 156; in assay [9], 7; in [10] it was 0.3. Moreover, the inhibitory constant (Ki) in [3] is 8 nM; in [4], 952 nM; in assay [5], 8820 nM; in assay [6] it was 393 nM; in assay [7] it was 19.5 nM.
For `NS(=O)(=O)c1ccc(N2CCCCS2(=O)=O)cc1`, the inhibition constant (Ki) in assay [7] is more than 50000 nM.
`NS(=O)(=O)c1ccc(N2CN(Cc3cccc(Cl)c3)CCS2(=O)=O)cc1`: the Ki in assay [3] was determined as 37.7 nM; in assay [4], 3970 nM; in [5], 6770 nM; in [6], 416 nM; in assay [7] it was 68.7 nM.
As to `NS(=O)(=O)c1ccc(N2CN(Cc3c(F)c(F)c(F)c(F)c3F)CCS2(=O)=O)cc1`, the Ki in assay [3] stood at 8.5 nM; in [4], 4440 nM; in assay [5], 8110 nM; in assay [6], 81.8 nM; in assay [7] it was 824 nM.
